Here are results for 53 compounds from ChEMBL document CHEMBL1135912, “GBR compounds and mepyramines as cocaine abuse therapeutics: chemometric studies on selectivity using grid independent descriptors (GRIND)” (J Med Chem, 2002).

“And” between values parts separate entries of the source, which are not always exact repeats. Equal values may be shown once.

Format in all cases: cell-based
Experiment [1] concerns the target Sodium-dependent dopamine transporter (Homo sapiens) (UniProt Q01959). Description: Inhibition of radioligand [125I]RTI-55 binding to human Dopamine transporter in clonal cells.
Experiment [2] addresses Sodium-dependent serotonin transporter (Homo sapiens) (UniProt P31645). The experiment can be described thus: Inhibition of [125I]RTI-55 binding to human SERT in clonal cells.
Experiment [3] has as its target Sodium-dependent dopamine transporter (Homo sapiens) (UniProt Q01959). The experiment can be described thus: Inhibition of [3H]dopamine uptake in HEK293 cells expressing recombinant Dopamine transporter.

Sodium-dependent serotonin transporter (Homo sapiens), sequence (P31645 whole entry, looked up): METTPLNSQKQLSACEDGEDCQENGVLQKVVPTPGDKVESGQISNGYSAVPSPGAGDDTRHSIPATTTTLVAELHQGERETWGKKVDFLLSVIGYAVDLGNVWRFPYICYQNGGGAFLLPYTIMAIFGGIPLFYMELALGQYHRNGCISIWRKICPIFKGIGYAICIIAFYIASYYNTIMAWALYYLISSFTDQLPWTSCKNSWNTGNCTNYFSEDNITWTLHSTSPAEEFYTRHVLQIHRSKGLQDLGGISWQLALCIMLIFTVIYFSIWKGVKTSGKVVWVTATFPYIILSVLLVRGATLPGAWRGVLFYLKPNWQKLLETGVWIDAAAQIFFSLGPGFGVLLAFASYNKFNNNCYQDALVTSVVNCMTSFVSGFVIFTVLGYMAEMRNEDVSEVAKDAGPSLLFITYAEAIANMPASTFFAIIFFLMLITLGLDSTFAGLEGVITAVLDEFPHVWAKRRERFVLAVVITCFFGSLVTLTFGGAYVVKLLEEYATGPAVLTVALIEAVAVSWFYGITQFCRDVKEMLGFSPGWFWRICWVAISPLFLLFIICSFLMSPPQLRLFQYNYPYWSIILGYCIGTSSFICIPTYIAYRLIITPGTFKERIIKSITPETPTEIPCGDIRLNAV
Sodium-dependent dopamine transporter (Homo sapiens), sequence (Q01959 whole entry): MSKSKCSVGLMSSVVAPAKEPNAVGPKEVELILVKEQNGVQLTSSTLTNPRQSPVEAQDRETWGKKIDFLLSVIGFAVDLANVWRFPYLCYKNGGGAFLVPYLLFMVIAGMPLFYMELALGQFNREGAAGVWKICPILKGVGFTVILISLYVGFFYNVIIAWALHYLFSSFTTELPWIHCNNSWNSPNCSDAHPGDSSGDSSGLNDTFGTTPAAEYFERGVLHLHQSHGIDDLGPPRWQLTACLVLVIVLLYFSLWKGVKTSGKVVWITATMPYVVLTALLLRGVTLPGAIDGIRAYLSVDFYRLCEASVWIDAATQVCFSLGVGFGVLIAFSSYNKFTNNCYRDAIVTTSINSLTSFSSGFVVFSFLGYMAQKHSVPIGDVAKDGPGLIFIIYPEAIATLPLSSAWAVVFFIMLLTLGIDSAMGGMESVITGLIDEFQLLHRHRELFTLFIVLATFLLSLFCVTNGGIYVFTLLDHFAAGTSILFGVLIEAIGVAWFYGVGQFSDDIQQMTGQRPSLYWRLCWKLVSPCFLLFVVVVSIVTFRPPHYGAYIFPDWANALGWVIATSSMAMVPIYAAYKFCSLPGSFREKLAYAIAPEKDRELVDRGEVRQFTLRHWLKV

For `Fc1ccc(C(OCCN2CCN(Cc3ccccc3)CC2)c2ccc(F)cc2)cc1`, the pKD in experiment [1] is 7.01; in experiment [2], 6.74. Besides, the Log 1/C in experiment [3] is 6.12.

`COc1ccc(N(CCN2CCN(C/C=C/c3ccccc3)CC2)Cc2ccccc2)cc1`: in experiment [2], the pKD was found to be 6.55.

Consider `C(=C\c1ccccc1)/CN1CCN(CCN(Cc2ccccc2)c2ccccc2)CC1`, for which the negative-log KD (pKD) in experiment [1] was found to be 6.35; in experiment [2], 6.22. Besides, the Log 1/C in experiment [3] worked out at 6.74.

Take `Fc1ccc(CCCN2CCN(CCOC(c3ccccc3)c3ccccc3)CC2)cc1`: the pKD in experiment [1] was 7.4; in experiment [2], 5.74. For the same compound, the Log 1/C in experiment [3] was found to be 6.41.

Consider `COc1ccc(CN(CCN2CCN(CCCc3ccccc3)CC2)c2ccccn2)cc1`, for which the pKD in experiment [1] was determined as 6.66; in experiment [2], 6.79. Besides, the Log 1/C in experiment [3] was found to be 6.57.

As for `Fc1ccc(CCCN2CCN(CCOC(c3ccc(F)cc3)c3ccc(F)cc3)CC2)cc1`, the pKD in experiment [1] came out at 8.25; in experiment [2] it was 6.44. Moreover, the Log 1/C in experiment [3] was 6.42.

Regarding `c1ccc(CCCN2CCN(CCCN(Cc3ccccc3)c3ccccc3)CC2)cc1`, in experiment [3], the Log 1/C is 6.07 and 5.83.

Consider `Fc1ccc(CN(CCN2CCN(CCCc3ccccc3)CC2)c2ccccn2)cc1`, for which the pKD was 7.19 in experiment [1] and 6.64 in experiment [2]. For the same compound, the Log 1/C in experiment [3] is 6.24.

As to `Fc1ccc(CCCN2CCN(CCOC(c3ccccc3)c3ccc(F)cc3)CC2)cc1` (stereo not drawn), the pKD in experiment [1] was determined as 7.51; in experiment [2], 6.33. For the same compound, the Log 1/C in experiment [3] is 7.49.

For `O=C(CCCN1CCN(CCCc2ccccc2)CC1)N(Cc1ccccc1)c1ccccn1`, the pKD in experiment [1] was 6.25; in experiment [2], 5.88. Further, the Log 1/C in experiment [3] stood at 6.61.

Consider `Fc1ccc(C(OCCN2CCN(C/C=C/c3ccccc3)CC2)c2ccc(Cl)cc2Cl)cc1` (stereo not drawn), for which the pKD was 7.18 in experiment [1] and 6.28 in experiment [2]. Further, in experiment [3], the Log 1/C is 5.86.

As for `COc1ccc(CN(CCN2CCN(C/C=C/c3ccccc3)CC2)c2ccccn2)cc1`, the values for the pKD in experiment [1] and in experiment [2] were 5.66 and 6.64, respectively.

With `COc1ccc(OC)c(/C=C/C(=O)N2CCN(CCOC(c3ccc(F)cc3)c3ccc(F)cc3)CC2)c1`, the values for the pKD in experiment [1] and in experiment [2] were 6.25 and 6.69, respectively.

Regarding `Fc1ccc(C(OCCN2CCN(C/C=C/Cc3ccccc3)CC2)c2ccc(F)cc2)cc1`, the figures for the pKD in experiment [1] and in experiment [2] were 8.29 and 7.14, respectively. Besides, the Log 1/C in experiment [3] came to 6.86.

Consider `c1ccc(CCCN2CCN(CCN(Cc3ccccc3)c3ccccn3)CC2)cc1`, for which the results for the pKD in experiment [1] and in experiment [2] were 7.04 and 6.28, respectively. Further, the Log 1/C in experiment [3] came out at 6.91.

As for `Fc1ccc(/C=C/CN2CCN(CCOC(c3ccc(F)cc3)c3ccc(F)cc3)CC2)cc1`, the negative-log KD (pKD) came to 8.41 in experiment [1] and 6.64 in experiment [2]. Further, the Log 1/C in experiment [3] was determined as 6.96.

As for `c1ccc(CCCN2CCN(CCCCN(Cc3ccccc3)c3ccccc3)CC2)cc1`, the negative logarithm of the KD (pKD) in experiment [1] stood at 7.86; in experiment [2] it was 6.88. In addition, the Log 1/C in experiment [3] amounted to 5.76.

For the compound `COc1ccc(CN(CCCN2CCN(CCCc3ccccc3)CC2)c2ccccn2)cc1`, the results for the negative logarithm of the KD (pKD) in experiment [1] and in experiment [2] were 7.8 and 7.23, respectively. For the same compound, the Log 1/C in experiment [3] was 7.08.

For the compound `Fc1ccc(CN(CCCN2CCN(CCCc3ccccc3)CC2)c2ccc(F)cc2)cc1`, the pKD in experiment [1] was 7.86; in experiment [2], 6.48. Besides, the Log 1/C in experiment [3] turned out to be 6.82.

For `Cc1ccc(CN(CCN2CCN(CCCc3ccccc3)CC2)c2ccccc2)cc1`, the pKD in experiment [1] came to 6.37; in experiment [2], 6.09. For the same compound, in experiment [3], the Log 1/C amounted to 5.49.

As for `c1ccc(CCCN2CCN(CCN(Cc3ccccc3)c3ccccc3)CC2)cc1`, the pKD in experiment [1] turned out to be 6.66; in experiment [2] it was 5.92. The Log 1/C in experiment [3] worked out at 5.96.

Consider `O=C(/C=C/c1c(Cl)cccc1Cl)N1CCN(CCOC(c2ccc(F)cc2)c2ccc(F)cc2)CC1`, for which the figures for the pKD in experiment [1] and in experiment [2] were 5.82 and 6.68, respectively.

As to `Fc1ccc(C(OCCN2CCN(C/C=C/c3ccc(Cl)cc3)CC2)c2ccc(F)cc2)cc1`, the pKD amounted to 7.65 in experiment [1] and 6.09 in experiment [2]. Further, the Log 1/C in experiment [3] came to 6.66.

Consider `Brc1ccc(CN(CCN2CCN(CCCc3ccccc3)CC2)c2ccc(Br)cc2)cc1`, for which the pKD amounted to 6.01 in experiment [1] and 5.79 in experiment [2].

With `O=C(/C=C/c1ccc(Cl)cc1)N1CCN(CCOC(c2ccc(F)cc2)c2ccc(F)cc2)CC1`, the values for the pKD in experiment [1] and in experiment [2] were 6.37 and 7.14, respectively. In experiment [3], the Log 1/C was found to be 5.44.

As for `O=C(CCCN1CCN(CCCc2ccccc2)CC1)N(Cc1ccccc1)c1ccccc1`, the pKD came to 7.56 in experiment [1] and 6.28 in experiment [2]. Further, the Log 1/C in experiment [3] stood at 7.12.

Turning to `COc1ccc(N(CCN2CCN(CCCc3ccccc3)CC2)Cc2ccccc2)cc1`, the pKD in experiment [1] worked out at 6.04; in experiment [2], 6.59. In addition, the Log 1/C in experiment [3] is 6.67.

On to `Cc1ccc(C(OCCN2CCN(C/C=C/c3ccccc3)CC2)c2ccccc2)cc1` (stereo not drawn), for which the pKD in experiment [1] stood at 6.95; in experiment [2], 5.95. In experiment [3], the Log 1/C was determined as 6.78.

With `Fc1ccc(CN(CCCN2CCN(CCCc3ccccc3)CC2)c2ccccn2)cc1`, the negative-log KD (pKD) in experiment [1] stood at 7.95; in experiment [2], 6.55. The Log 1/C in experiment [3] is 6.91.

With `O=C(/C=C/c1ccccc1Cl)N1CCN(CCOC(c2ccc(F)cc2)c2ccc(F)cc2)CC1`, the negative logarithm of the KD (pKD) in experiment [1] is 6.14; in experiment [2] it was 6.77. Besides, the Log 1/C in experiment [3] worked out at 5.24.

As to `Fc1ccc(/C=C/CN2CCN(CCOC(c3ccccc3)c3ccccc3)CC2)cc1`, the pKD in experiment [1] came out at 7.8; in experiment [2], 5.88. In experiment [3], the Log 1/C amounted to 7.26.

`Fc1ccc(C(OCCN2CCN(CCCc3ccc(Cl)cc3)CC2)c2ccc(F)cc2)cc1`: the pKD in experiment [1] was 8.09; in experiment [2] it was 6.81. Besides, the Log 1/C in experiment [3] came out at 7.3.

For `Cc1ccc(/C=C/C(=O)N2CCN(CCOC(c3ccc(F)cc3)c3ccc(F)cc3)CC2)cc1`, the results for the negative logarithm of the KD (pKD) in experiment [1] and in experiment [2] were 6.1 and 6.71, respectively. Further, in experiment [3], the Log 1/C is 5.21.

With `Fc1ccc(/C=C/CN2CCN(CCOC(c3ccccc3)c3ccc(F)cc3)CC2)cc1` (stereo not drawn), the results for the pKD in experiment [1] and in experiment [2] were 7.64 and 6.7, respectively. For the same compound, the Log 1/C in experiment [3] turned out to be 7.22.

For the compound `O=C(CCCCN1CCN(CCCc2ccccc2)CC1)N(Cc1ccccc1)c1ccccc1`, the pKD in experiment [1] turned out to be 7.24; in experiment [2], 6.69. Besides, the Log 1/C in experiment [3] was determined as 6.92.

With `Fc1ccc(C(OCCN2CCN(C/C=C/c3ccccc3)CC2)c2ccc(F)cc2)cc1` (stereo in doubt; 26), the pKD in experiment [1] was 6.39; in experiment [2], 6.02. Moreover, the Log 1/C in experiment [3] turned out to be 6.97.

Turning to `Fc1ccc(C(OCCN2CCN(CCCc3ccccc3)CC2)c2ccccc2)cc1` (stereo not drawn), the pKD in experiment [1] worked out at 7.69; in experiment [2] it was 6.21. In addition, the Log 1/C in experiment [3] is 7.8.

In the case of `C(=C\c1ccccc1)/CN1CCN(CCN(Cc2ccccc2)c2ccccn2)CC1`, the pKD in experiment [1] is 6; in experiment [2], 6.17. In addition, the Log 1/C in experiment [3] worked out at 6.1.

Turning to `COc1ccc(/C=C/CN2CCN(CCOC(c3ccc(F)cc3)c3ccc(F)cc3)CC2)cc1`, the pKD in experiment [1] is 7.19; in experiment [2], 6.43. Also, in experiment [3], the Log 1/C turned out to be 6.47.

For the compound `Fc1ccc(CN(CCN2CCN(CCCc3ccccc3)CC2)c2ccc(F)cc2)cc1`, the negative-log KD (pKD) in experiment [1] turned out to be 7.28; in experiment [2], 6.57.

With `COc1ccc(OC)c(/C=C/CN2CCN(CCOC(c3ccc(F)cc3)c3ccc(F)cc3)CC2)c1`, the figures for the pKD in experiment [1] and in experiment [2] were 8.42 and 6.74, respectively. In experiment [3], the Log 1/C amounted to 6.43.

As to `O=C(CN1CCN(CCCc2ccccc2)CC1)N(Cc1ccccc1)c1ccccc1`, the negative-log KD (pKD) in experiment [1] worked out at 5.97; in experiment [2] it was 5.54. Moreover, the Log 1/C in experiment [3] stood at 6.28.

Consider `Fc1ccc(C(OCCN2CCN(C/C=C/c3ccccc3)CC2)c2ccc(Cl)cc2)cc1` (stereo not drawn), for which the figures for the pKD in experiment [1] and in experiment [2] were 8.41 and 6.72, respectively. In addition, the Log 1/C in experiment [3] is 6.7.

`COc1ccc(C(OCCN2CCN(C/C=C/c3ccccc3)CC2)c2ccccc2)cc1` (stereo not drawn) had a pKD in experiment [2] of 6.16.

Regarding `c1ccc(CCCN2CCN(CCCCCN(Cc3ccccc3)c3ccccc3)CC2)cc1`, the pKD in experiment [1] came out at 7.5; in experiment [2], 6.63. In experiment [3], the Log 1/C was 5.83.

With `Fc1ccc(C(OCCN2CCN(C/C=C/c3ccccc3)CC2)c2ccccc2)cc1` (stereo not drawn), the negative logarithm of the KD (pKD) in experiment [1] was 7.48; in experiment [2], 6.67. In addition, the Log 1/C in experiment [3] stood at 7.1.

As to `Fc1ccc(C(OCCN2CCN(C/C=C/c3ccccc3)CC2)c2ccc(F)cc2)cc1` (stereo in doubt; 24), the pKD in experiment [1] was 7.76; in experiment [2], 7.79. For the same compound, in experiment [3], the Log 1/C is 8.38.

With `Cc1ccc(/C=C/CN2CCN(CCOC(c3ccc(F)cc3)c3ccc(F)cc3)CC2)cc1`, the pKD was found to be 7.32 in experiment [1] and 6.18 in experiment [2]. Further, the Log 1/C in experiment [3] stood at 6.43.

With `CN(CCc1ccccc1)CCN1CCN(CCCc2ccccc2)CC1`, the values for the pKD in experiment [1] and in experiment [2] were 6.26 and 5.58, respectively. In addition, the Log 1/C in experiment [3] was 6.85.

Turning to `COc1cccc(C(OCCN2CCN(C/C=C/c3ccccc3)CC2)c2cccc(Br)c2)c1` (stereo not drawn), the figures for the pKD in experiment [1] and in experiment [2] were 6.88 and 6.13, respectively. The Log 1/C in experiment [3] worked out at 6.05.

For `COc1ccc(/C=C/C(=O)N2CCN(CCOC(c3ccc(F)cc3)c3ccc(F)cc3)CC2)cc1`, the pKD in experiment [1] stood at 6.31; in experiment [2] it was 6.85. In addition, the Log 1/C in experiment [3] came to 5.87.

For the compound `Fc1ccc(C(OCCN2CCN(C/C=C/c3ccccc3)CC2)c2ccc(F)cc2)cc1` (stereo in doubt; 15), the pKD was found to be 8.11 in experiment [1] and 6.44 in experiment [2]. The Log 1/C in experiment [3] is 7.08.

As to `Clc1ccc(C(OCCN2CCN(C/C=C/c3ccccc3)CC2)c2ccc(Cl)cc2)cc1`, the pKD in experiment [1] was determined as 7.42; in experiment [2], 6.48. In experiment [3], the Log 1/C came to 6.62.
